Test results reported in ChEMBL document CHEMBL5653615 (J Biol Chem, 2013).

Experiments:
[1] = molecular target: Tyrosine-protein kinase Fes/Fps (Homo sapiens) (UniProt P07332); assay: Inhibition of human FES at 18.6 nM by HotSpot assay relative to control
[2] = molecular target: T1, Serine/threonine-protein kinase Sgk3 (Homo sapiens) (UniProt Q96BR1); assay: Inhibition of human SGKL at 18.6 nM by HotSpot assay relative to control
T1 sequence (whole entry): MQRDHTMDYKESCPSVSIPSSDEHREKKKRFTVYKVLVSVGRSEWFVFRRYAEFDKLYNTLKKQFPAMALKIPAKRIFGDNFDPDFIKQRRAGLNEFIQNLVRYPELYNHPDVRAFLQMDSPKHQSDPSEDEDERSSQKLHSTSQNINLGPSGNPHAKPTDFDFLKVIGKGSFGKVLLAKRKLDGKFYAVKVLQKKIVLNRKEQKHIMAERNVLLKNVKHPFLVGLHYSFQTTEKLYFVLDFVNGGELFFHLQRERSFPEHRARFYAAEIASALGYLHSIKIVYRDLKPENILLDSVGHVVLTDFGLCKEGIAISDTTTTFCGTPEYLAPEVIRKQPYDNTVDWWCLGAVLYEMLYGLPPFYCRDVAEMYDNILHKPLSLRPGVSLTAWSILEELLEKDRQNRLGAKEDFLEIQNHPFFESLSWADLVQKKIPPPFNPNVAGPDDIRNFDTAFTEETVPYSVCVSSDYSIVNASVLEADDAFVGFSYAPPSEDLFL

[3] = molecular target: T2, Serine/threonine-protein kinase TBK1 (Homo sapiens) (UniProt Q9UHD2); assay: Inhibition of human TBK1 at 18.6 nM by HotSpot assay relative to control
T2 sequence (whole entry): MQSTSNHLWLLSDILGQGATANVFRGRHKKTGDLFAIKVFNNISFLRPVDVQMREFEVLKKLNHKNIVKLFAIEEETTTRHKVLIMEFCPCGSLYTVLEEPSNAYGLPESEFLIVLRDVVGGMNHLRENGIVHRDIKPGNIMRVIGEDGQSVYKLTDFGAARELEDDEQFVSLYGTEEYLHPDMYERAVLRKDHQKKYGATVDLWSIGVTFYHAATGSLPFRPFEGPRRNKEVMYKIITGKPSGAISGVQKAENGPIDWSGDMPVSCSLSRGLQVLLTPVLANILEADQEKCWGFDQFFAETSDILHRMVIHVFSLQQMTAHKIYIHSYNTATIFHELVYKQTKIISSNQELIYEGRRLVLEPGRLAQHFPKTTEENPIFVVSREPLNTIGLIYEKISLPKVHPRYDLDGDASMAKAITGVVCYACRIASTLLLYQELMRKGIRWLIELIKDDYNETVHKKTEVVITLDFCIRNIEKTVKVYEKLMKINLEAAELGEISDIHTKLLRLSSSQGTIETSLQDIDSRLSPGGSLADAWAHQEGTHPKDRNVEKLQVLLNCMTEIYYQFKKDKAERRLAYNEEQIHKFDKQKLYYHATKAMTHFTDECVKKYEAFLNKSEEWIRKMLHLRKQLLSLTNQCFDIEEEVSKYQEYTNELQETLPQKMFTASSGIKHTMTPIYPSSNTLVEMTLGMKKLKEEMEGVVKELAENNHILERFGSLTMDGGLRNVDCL

[4] = molecular target: Serine/threonine-protein kinase 25 (Homo sapiens) (UniProt O00506); assay: Inhibition of human YSK1 at 18.6 nM by HotSpot assay relative to control
Chain of Serine/threonine-protein kinase 25 (Homo sapiens) (O00506 whole entry, looked up): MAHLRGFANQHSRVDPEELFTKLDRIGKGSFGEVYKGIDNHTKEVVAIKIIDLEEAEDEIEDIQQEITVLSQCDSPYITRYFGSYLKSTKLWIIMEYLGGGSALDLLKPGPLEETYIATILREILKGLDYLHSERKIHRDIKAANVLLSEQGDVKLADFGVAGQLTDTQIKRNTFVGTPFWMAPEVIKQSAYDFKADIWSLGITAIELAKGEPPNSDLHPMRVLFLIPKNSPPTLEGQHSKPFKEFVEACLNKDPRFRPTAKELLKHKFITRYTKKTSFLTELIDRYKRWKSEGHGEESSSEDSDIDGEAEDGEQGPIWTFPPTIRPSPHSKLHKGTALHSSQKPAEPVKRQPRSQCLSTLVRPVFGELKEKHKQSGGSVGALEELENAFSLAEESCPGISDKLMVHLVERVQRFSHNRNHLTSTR

[5] = molecular target: Misshapen-like kinase 1 (Homo sapiens) (UniProt Q8N4C8); assay: Inhibition of human MINK1 at 18.6 nM by HotSpot assay relative to control
[6] = molecular target: T3, Serine/threonine-protein kinase Nek11 (Homo sapiens) (UniProt Q8NG66); assay: Inhibition of human NEK11 at 18.6 nM by HotSpot assay relative to control
T3 sequence (whole entry): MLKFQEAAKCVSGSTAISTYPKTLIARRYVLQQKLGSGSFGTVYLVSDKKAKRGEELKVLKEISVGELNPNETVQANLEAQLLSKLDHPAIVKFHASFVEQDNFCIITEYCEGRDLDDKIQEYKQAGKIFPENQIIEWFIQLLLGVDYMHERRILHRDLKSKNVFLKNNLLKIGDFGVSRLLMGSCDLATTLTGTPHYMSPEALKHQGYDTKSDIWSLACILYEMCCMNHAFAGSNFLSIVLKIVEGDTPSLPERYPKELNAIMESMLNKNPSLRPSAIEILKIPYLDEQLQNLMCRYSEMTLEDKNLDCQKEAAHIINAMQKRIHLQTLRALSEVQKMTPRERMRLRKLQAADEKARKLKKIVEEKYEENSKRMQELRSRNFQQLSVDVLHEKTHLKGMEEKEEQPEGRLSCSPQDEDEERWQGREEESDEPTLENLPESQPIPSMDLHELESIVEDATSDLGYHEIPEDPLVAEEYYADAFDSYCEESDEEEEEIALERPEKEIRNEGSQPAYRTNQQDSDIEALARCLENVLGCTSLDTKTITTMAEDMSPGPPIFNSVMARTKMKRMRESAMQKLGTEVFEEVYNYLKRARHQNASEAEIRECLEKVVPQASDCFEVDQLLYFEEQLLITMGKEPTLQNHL

[7] = molecular target: Mitogen-activated protein kinase 3 (Homo sapiens) (UniProt P27361); assay: Inhibition of human ERK1 at 1.82 nM by HotSpot assay relative to control
Chain of Mitogen-activated protein kinase 3 (Homo sapiens) (P27361 whole entry): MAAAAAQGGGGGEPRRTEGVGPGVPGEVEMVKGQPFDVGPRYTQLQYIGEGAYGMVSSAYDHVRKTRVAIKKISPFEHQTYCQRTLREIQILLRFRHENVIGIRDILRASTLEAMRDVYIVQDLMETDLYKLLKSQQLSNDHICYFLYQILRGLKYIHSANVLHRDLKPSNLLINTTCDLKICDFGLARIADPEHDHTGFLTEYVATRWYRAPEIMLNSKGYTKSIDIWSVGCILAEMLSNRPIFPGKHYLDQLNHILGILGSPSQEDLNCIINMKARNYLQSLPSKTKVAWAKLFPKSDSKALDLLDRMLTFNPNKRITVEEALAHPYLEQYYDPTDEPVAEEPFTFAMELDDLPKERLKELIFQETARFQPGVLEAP

[8] = molecular target: Dual specificity protein kinase CLK4 (Homo sapiens) (UniProt Q9HAZ1); details: dose 1.82 nM
Chain of Dual specificity protein kinase CLK4 (Homo sapiens) (Q9HAZ1 whole entry, looked up): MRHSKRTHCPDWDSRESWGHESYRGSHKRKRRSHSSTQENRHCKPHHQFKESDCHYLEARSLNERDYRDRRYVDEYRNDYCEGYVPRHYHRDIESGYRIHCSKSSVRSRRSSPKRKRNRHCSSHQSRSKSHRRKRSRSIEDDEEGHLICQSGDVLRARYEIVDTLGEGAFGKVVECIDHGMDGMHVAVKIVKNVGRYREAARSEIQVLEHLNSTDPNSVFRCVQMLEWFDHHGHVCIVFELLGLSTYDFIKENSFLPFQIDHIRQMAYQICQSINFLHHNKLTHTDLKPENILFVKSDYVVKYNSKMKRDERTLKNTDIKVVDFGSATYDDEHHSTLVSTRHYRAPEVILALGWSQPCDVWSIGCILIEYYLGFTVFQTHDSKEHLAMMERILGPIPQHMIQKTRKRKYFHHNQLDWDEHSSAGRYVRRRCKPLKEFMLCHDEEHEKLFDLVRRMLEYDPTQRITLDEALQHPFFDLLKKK
Description: Inhibition of human CLK4 at 1.82 nM by HotSpot assay relative to control

[9] = molecular target: Protein-tyrosine kinase 2-beta (Homo sapiens) (UniProt Q14289); assay: Inhibition of human PYK2 at 1.82 nM by HotSpot assay relative to control
Chain of Protein-tyrosine kinase 2-beta (Homo sapiens) (Q14289 whole entry, looked up): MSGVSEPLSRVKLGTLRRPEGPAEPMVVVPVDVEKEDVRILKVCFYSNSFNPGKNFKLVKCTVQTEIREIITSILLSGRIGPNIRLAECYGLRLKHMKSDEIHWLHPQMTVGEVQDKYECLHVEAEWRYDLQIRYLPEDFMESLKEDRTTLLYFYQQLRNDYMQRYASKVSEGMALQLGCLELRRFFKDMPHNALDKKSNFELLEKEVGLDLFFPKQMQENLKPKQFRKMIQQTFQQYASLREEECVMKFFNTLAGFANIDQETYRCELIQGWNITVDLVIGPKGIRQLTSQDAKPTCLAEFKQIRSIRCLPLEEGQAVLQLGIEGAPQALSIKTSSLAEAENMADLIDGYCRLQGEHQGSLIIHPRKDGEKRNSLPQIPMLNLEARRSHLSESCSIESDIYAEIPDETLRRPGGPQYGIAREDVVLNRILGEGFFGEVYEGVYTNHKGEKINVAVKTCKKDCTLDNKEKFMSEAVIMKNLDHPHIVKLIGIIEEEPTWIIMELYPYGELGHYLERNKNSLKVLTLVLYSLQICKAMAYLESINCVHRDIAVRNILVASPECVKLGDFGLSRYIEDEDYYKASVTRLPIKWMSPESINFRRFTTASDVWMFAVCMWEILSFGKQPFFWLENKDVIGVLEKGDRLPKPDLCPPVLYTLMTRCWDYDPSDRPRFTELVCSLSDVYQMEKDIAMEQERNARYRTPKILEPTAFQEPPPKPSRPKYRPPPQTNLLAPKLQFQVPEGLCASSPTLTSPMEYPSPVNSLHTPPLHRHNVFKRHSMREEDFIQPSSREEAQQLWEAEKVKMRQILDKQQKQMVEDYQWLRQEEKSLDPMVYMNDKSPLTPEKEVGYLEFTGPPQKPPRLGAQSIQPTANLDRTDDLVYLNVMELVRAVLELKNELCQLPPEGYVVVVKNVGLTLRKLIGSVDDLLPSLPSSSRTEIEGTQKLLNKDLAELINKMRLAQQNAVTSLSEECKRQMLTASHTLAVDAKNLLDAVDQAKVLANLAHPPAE

[10] = molecular target: Cyclin-dependent kinase 5/CDK5 activator 1 (Homo sapiens) (UniProt Q00535+Q15078); assay: Inhibition of human CDK5/p35 at 1.82 nM by HotSpot assay relative to control; format: protein-complex assay
Chain of Cyclin-dependent kinase 5/CDK5 activator 1 (Homo sapiens) (Q00535 whole entry): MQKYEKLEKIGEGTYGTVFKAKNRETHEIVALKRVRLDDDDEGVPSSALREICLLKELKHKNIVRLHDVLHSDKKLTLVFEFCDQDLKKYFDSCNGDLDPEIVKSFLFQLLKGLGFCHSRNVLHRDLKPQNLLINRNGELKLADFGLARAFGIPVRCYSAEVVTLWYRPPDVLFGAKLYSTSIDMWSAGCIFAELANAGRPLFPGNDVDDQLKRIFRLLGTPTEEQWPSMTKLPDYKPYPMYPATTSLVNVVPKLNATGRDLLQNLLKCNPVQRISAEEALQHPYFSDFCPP
Chain of Cyclin-dependent kinase 5/CDK5 activator 1 (Homo sapiens) (Q15078 99-307 partner limits assumed): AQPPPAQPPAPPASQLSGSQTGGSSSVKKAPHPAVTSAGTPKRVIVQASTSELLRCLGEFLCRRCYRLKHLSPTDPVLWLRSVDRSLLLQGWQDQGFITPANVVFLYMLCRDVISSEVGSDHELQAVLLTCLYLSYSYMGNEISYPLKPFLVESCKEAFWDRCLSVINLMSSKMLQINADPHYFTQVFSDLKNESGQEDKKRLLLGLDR

[11] = molecular target: T4, Lymphokine-activated killer T-cell-originated protein kinase (Homo sapiens) (UniProt Q96KB5); assay: Inhibition of human TOPK at 1.82 nM by HotSpot assay relative to control
T4 sequence (whole entry): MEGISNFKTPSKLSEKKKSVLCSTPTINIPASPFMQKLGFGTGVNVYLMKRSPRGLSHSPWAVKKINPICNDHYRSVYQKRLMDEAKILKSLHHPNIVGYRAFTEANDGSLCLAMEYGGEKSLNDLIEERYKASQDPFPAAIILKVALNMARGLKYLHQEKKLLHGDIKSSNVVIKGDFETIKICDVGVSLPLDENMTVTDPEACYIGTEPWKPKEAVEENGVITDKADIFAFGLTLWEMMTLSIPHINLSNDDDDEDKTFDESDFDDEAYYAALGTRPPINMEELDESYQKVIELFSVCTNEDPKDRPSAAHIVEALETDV

[12] = molecular target: Serine/threonine-protein kinase 25 (Homo sapiens) (UniProt O00506); assay: Inhibition of human YSK1 at 1.82 nM by HotSpot assay relative to control
[13] = molecular target: Macrophage-stimulating protein receptor (Homo sapiens) (UniProt Q04912); assay: Inhibition of human MST1R at 1.82 nM by HotSpot assay relative to control
Chain of Macrophage-stimulating protein receptor (Homo sapiens) (Q04912 25-304 limits assumed): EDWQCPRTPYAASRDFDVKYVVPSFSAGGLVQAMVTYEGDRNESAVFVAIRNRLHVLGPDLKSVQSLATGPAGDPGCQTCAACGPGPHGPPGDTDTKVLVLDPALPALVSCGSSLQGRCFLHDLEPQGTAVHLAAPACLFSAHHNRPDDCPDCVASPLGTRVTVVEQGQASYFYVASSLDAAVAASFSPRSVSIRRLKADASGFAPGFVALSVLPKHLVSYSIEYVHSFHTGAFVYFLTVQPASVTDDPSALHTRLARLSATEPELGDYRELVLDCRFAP
Chain of Macrophage-stimulating protein receptor (Homo sapiens) (Q04912 310-1400 limits assumed): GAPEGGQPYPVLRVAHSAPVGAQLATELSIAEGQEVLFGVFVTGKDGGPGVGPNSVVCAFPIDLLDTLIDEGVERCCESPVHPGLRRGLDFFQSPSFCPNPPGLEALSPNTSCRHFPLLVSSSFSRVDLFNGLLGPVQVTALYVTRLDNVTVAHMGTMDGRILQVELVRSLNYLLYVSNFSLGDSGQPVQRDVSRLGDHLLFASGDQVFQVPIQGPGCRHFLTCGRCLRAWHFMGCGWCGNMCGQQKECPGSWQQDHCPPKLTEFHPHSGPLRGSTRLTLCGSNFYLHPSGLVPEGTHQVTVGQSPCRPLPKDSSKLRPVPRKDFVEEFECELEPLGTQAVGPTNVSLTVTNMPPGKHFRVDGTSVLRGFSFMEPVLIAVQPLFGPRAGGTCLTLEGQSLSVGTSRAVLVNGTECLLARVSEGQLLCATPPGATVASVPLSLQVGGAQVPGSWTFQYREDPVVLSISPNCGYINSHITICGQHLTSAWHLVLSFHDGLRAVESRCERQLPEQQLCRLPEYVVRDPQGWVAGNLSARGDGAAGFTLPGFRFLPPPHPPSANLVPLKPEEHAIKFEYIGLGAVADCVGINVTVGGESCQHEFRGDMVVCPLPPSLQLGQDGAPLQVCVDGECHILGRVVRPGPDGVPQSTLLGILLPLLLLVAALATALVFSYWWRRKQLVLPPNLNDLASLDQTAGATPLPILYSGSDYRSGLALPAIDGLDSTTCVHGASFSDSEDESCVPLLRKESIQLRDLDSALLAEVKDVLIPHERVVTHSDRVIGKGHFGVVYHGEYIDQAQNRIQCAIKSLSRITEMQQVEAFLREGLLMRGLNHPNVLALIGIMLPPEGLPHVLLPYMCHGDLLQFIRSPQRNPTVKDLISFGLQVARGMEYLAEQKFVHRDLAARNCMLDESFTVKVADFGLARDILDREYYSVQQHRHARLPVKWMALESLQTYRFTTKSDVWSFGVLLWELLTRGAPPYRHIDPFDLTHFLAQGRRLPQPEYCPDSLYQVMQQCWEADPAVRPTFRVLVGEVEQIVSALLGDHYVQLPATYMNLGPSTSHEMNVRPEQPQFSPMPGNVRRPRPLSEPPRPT

Chain of Tyrosine-protein kinase Fes/Fps (Homo sapiens) (P07332 whole entry): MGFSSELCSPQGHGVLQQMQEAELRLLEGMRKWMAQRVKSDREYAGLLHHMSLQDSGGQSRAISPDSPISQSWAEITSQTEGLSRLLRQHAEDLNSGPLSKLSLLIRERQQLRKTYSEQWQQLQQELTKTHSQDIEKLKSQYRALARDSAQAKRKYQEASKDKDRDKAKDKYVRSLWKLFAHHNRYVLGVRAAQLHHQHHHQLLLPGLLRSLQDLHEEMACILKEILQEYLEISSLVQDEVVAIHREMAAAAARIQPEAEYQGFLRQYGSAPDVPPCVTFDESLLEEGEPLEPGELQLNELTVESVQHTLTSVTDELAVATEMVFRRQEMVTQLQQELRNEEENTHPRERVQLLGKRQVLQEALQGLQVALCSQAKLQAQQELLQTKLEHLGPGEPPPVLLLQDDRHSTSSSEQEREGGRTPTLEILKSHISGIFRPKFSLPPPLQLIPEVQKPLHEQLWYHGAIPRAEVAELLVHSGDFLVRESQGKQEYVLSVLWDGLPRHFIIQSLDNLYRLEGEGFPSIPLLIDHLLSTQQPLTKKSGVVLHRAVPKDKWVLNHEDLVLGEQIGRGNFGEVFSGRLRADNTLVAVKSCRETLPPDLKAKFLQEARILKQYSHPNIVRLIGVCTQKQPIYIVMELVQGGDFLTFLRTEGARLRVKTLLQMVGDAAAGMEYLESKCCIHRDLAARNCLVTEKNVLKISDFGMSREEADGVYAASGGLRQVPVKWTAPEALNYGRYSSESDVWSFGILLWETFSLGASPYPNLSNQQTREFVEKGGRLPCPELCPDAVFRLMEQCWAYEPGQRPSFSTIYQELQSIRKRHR

Row | inhibition [1] | inhibition [2] | inhibition [3] | inhibition [4] | inhibition [5] | inhibition [6] | inhibition [7] | inhibition [8] | inhibition [9] | inhibition [10] | inhibition [12] | inhibition [13] | Compound | inhibition [11]
1 | 1.59% | 0.11% | 5.59% | -3.04% | -2.76% | 10.2% |  |  |  |  |  |  | C[C@]1(O)C[C@@H](c2nc(-c3ccc4ccc(-c5ccccc5)nc4c3)c3c(N)nccn32)C1 | 
2 |  |  |  |  |  |  | -2.81% | -10% | 1.81% | 1.01% | 5.25% | 0.1% | C[C@@]1(C(=O)Nc2ccc(F)nc2)CCCN1c1nc(Nc2cc(C3CC3)n[nH]2)c2cccn2n1 | 8.44%
